Laboratory results reported in patent publication US20230085945A1, “ORTHOGONAL SAFETY SWITCHES TO ELIMINATE GENETICALLY ENGINEERED CELLS” (The Board of Trustees of the Leland Stanford Junior …, priority 2020, published 2023).

What was measured:
[1] = system: NANOG^iCasp9-YFP hPSCs transplanted subcutaneously (teratomas); experiment: In vivo teratoma formation after AP20 pre-treatment of hPSCs (bioluminescent imaging); parameters: species or system NOD-SCID Il2rg^−/− mice; details: 5×10^5 hPSCs pre-treated with 1 nM AP20 for 24 hours, subcutaneous transplantation
Procedure: (§1) FIG. 3: Implementation of the NANOG^iCasp9-YFP safety switch. A) Schema depicting how drug AP20187 induces dimerization of Caspase9 in undifferentiated NANOG^iCasp9-YFP hESCs, subsequently triggering cell death (top left). NANOG^iCasp9-YFP hESCs were treated for 24 hours with increasing concentrations of AP20187. AP20187 was withdrawn, and cultures were further grown in mTeSR1 to allow any surviving hESCs to grow; any surviving colonies were counted 1 week later (top right). Alkaline phosphatase staining of whole wells of a 12-well plate after 24-hour treatment with AP20187 (bottom). […] Bioluminescent imaging of mice occurred weekly for 5 weeks with no transplant control (NTC) animals included for relative luminescence normalization. Total flux (photons/sec) was measured for each animal and averaged. […] The percentage of surviving cells was calculated relative to untreated controls. […]
Given that very small numbers of hPSCs (10,000) are sufficient to form teratomas in vivo, we tested the lower bounds of this system to test whether any rare hPSCs survived drug treatment and whether they could form teratomas. […] We used bioluminescent imaging (using the AkaLuciferase system) to determine if micro-teratomas might form, rather than visual inspection of subcutaneous nodules, because bioluminescent imaging is more sensitive and quantitative. […]

[2] = system: NANOG-YFP^+ hPSCs mixed with hPSC-derived sclerotome cells; experiment: Ablation of undifferentiated hPSCs in a heterogeneous cell population (hPSCs spiked into day-5 sclerotome cells); format: cell-based, human
Procedure: as §1
Flow cytometric quantification of viable cells—NANOG^iCasp9-YFP hESCs were dissociated into single cells with Accutase and 1×10^6 cells were plated per well in a 6-well plate pre-coated with Matrigel. […] Subsequently, to quantify the percentage of surviving cells, the cultures were dissociated with TrypLE Express. […] YFP^+ (i.e., NANOG^+) cells were analyzed (Beckman Coulter CytoFlex Analyzer) to count live cells for both untreated and AP20187-treated groups. […]

SMILES: CC[C@H](C(=O)N1CCCC[C@H]1C(=O)O[C@H](CCc1ccc(OC)c(OC)c1)c1cccc(OCC(=O)NCC(CNC(=O)COc2cccc([C@@H](CCc3ccc(OC)c(OC)c3)OC(=O)[C@@H]3CCCCN3C(=O)[C@@H](CC)c3cc(OC)c(OC)c(OC)c3)c2)CN(C)C)c1)c1cc(OC)c(OC)c(OC)c1 [AP20]
- mice that formed teratomas [1]: 0/14
- decrease in NANOG-YFP^+ cells ([2]; 10% undifferentiated hPSCs in day-5 sclerotome progenitors, AP20 for last 24 hours): > 10 fold
- colony formation of surviving FACS-purified NANOG-YFP^+ cells ([2]; continued culture in hPSC media after AP20): did not form colonies
